According to US20100167931A1, “HETEROCYCLICALLY SUBSTITUTED HETEROCYCLYLCARBOXYLIC ACID DERIVATIVES” (Bayer CropScience AG, priority 2007, published 2010):

Experiments:
[1] = logP determination by HPLC on reverse-phase column (EEC Directive 79/831 Annex V.A8); type: physicochemical; settings: for chromatographic logP: reverse-phase C18 HPLC column
Description: The logP values given in the tables and preparation examples above were determined in accordance with EEC Directive 79/831 Annex V.A8 by HPLC (High Performance Liquid Chromatography) on a reverse-phase column (C 18). Temperature: 43° C. The determination was carried out by LC-MS at pH 2.7 using 0.1% aqueous formic acid and acetonitrile (containing 0.1% formic acid) as mobile phases; linear gradient from 10% acetonitrile to 95% acetonitrile. Calibration was carried out using unbranched alkan-2-ones (having 3 to 16 carbon atoms) with known logP values (determination of the logP values by the retention times using linear interpolation between two successive alkanones).

Boophilus microplus = Boophilus microplus test (injection); type: in vivo; settings: application rate of 20 μg/animal
Description: Boophilus microplus Test (Injection) Solvent: dimethyl sulphoxide To produce a suitable preparation of active compound, 1 part by weight of active compound is mixed with the stated amount of solvent, and the concentrate is diluted with solvent to the desired concentration. The solution of active compound is injected into the abdomen (Boophilus microplus), the animals are transferred into dishes and stored in a climatized room. After the desired period of time, the effect in % is determined. 100% means that none of the ticks has laid any fertile eggs.

[2] = test system: green peach aphid (Myzus persicae); assay: Activity increase by ammonium/phosphonium salts in combination with penetrants, Myzus persicae test; type: in vivo; settings: 20 ppm, bell pepper plants
Description: Activity Increase by Ammonium/Phosphonium Salts in Combination with Penetrants Myzus persicae Test
Solvent: 7 parts by weight of dimethylformamide
Emulsifier: 2 parts by weight of alkylaryl polyglycol ether
To produce a suitable preparation of active compound, 1 part by weight of active compound is mixed with the stated amounts of solvent and emulsifier, and the concentrate is diluted with emulsifier-containing water to the desired concentration. If the addition of ammonium salts or ammonium salts and penetrants is required, these are in each case added in a concentration of 1000 ppm after dilution to the finished solution of the preparation.
Bell pepper plants (Capsicum annuum) which are heavily infested by the green peach aphid (Myzus persicaei) are treated by being sprayed with the active compound preparation at the desired concentration.
After the desired period of time, the kill in % is determined. 100% means that all animals have been killed; 0% means that none of the animals have been killed.

[3] = HPLC reverse-phase C 18, 43° C., pH 2.7, 0.1% aqueous formic acid and acetonitrile
[4] = intermediates of the formula (IV), HPLC reverse-phase C18, 43° C., pH 2.7 (0.1% aqueous formic acid/acetonitrile)
[5] = intermediates of the formula (V), HPLC reverse-phase C18, 43° C., pH 2.7 (0.1% aqueous formic acid/acetonitrile)
[6] = intermediates of the formula (VI), HPLC reverse-phase C18, 43° C., pH 2.7 (0.1% aqueous formic acid/acetonitrile)

## CC(C)Nc1c(-n2nc(C(F)(F)F)cc2C(F)(F)F)c(Cl)nc2c(C(=O)O)cnn12 [Example I-20]
[1]; [3]
  logP: m/z 457, logP 3.11

## COC(=O)c1cnn2c(O)c(-c3c(Cl)c(C)nn3C)c(O)nc12 [IV-17]
[1]; [4]
  logP: logP 0.59

## COC(=O)c1cnn2c(O)c(-n3cc(Cl)cn3)c(O)nc12 [IV-4]
[1]; [4]
  logP: m/z 310, logP 0.43

## COC(=O)c1cnn2c(O)c(-n3nc(C)cc3C)c(O)nc12 [IV-1, Methyl 6-(3,5-dimethyl-1H-pyrazol-1-yl)-5,7-dihydroxypyrazolo[1,5-a]pyrimidine-3-carboxylate]
[1]; [3]
  chromatographic logP: 0.41

## CC(C)C(C)Nc1c(-n2nc(C(F)(F)F)cc2C(F)(F)F)c(Cl)nc2c(C(=O)NS(C)(=O)=O)cnn12 (centres unmarked) [Example I-4]
Boophilus microplus
  effect (no fertile eggs laid): ≥ 80%

## COC(=O)c1cnn2c(Cl)c(-c3c(C)nn(C)c3C)c(Cl)nc12 [V-8]
[1]; [5]
  logP: m/z 354, logP 1.88

## COC(=O)c1cnn2c(Cl)c(-n3nc(C)cc3C)c(Cl)nc12 [Example V-1, Methyl 5,7-dichloro-6-(3,5-dimethyl-1H-pyrazol-1-yl)pyrazolo[1,5-a]pyrimidine-3-carboxylate]
[1]; [3]
  chromatographic logP: 2.16

## O=C(O)c1cnn2c(NCC3CC3)c(-n3nc(C(F)(F)F)cc3C(F)(F)F)c(Cl)nc12 [Example I-23]
[1]; [3]
  logP: m/z 469, logP 3.22

## Cc1nn(C)c(-c2c(Cl)nc3c(C(=O)O)cnn3c2NC(C)C)c1Cl [Example I-57]
[1]; [3]
  logP: logP 2.20

## N#CC(C#N)c1c(Cl)cncc1Cl [2-(3,5-dichloropyridin-4-yl)malononitrile]
[1]; [3]
  chromatographic logP: 0.9

## COC(=O)c1cnn2c(NC(C)C(F)(F)F)c(-c3c(C)nn(C)c3C)c(Cl)nc12 (centres unmarked) [VI-12]
[1]; [6]
  logP: m/z 431, logP 2.54

## COC(=O)c1cnn2c(NCC(F)(F)F)c(-n3nc(C(F)(F)F)cc3C(F)(F)F)c(Cl)nc12 [VI-2, Methyl 6-[3,5-bis(trifluoromethyl)-1H-pyrazol-1-yl]-5-chloro-7-[(2,2,2-trifluoroethyl)amino]-pyrazolo[1,5-a]pyrimidine-3-carboxylate]
[1]; [3]
  chromatographic logP: 3.79

## COC(=O)c1cnn2c(O)c(-c3ncccc3C(F)(F)F)c(O)nc12 [IV-20]
[1]; [4]
  logP: logP 0.65

## COC(=O)c1cnn2c(Cl)c(-c3ncccc3C(F)(F)F)c(Cl)nc12 [V-21]
[1]; [5]
  logP: logP 2.61

## COC(=O)c1cnn2c(Cl)c(-c3c(Cl)c(C)nn3C)c(Cl)nc12 [V-18]
[1]; [5]
  logP: logP 2.67

## COC(=O)c1cnn2c(O)c(-c3cncc(Br)c3)c(O)nc12 [IV-15]
[1]; [4]
  logP: logP 0.78

## COC(=O)c1cnn2c(O)c(-c3ncc(C(F)(F)F)cc3F)c(O)nc12 [IV-19]
[1]; [4]
  logP: logP 0.91

## CC(C)C(C)Nc1c(-n2cc(Cl)cn2)c(Cl)nc2c(C(=O)O)cnn12 (centres unmarked) [Example I-25]
[1]; [3]
  logP: m/z 383, logP 2.81

## COC(=O)c1cnn2c(O)c(-n3nc(C(F)(F)F)cc3C(F)(F)F)c(O)nc12 [IV-3]
[1]; [4]
  logP: m/z 412, logP 1.37

## CC(C)Nc1c(-c2ncccc2Cl)c(Cl)nc2c(C(=O)NS(C)(=O)=O)cnn12 [Example I-32]
[2]; +AS 1000 ppm
  Kill (%) after 6 d +AS 1000 ppm: 60%
[2]; +AS + RME in each case 1000 ppm
  Kill (%) after 6 d +AS + RME in each case 1000 ppm: 90%
[2]; active compound alone
  Kill (%) after 6 d: 10%

## COC(=O)c1cnn2c(NC(C)C(C)C)c(-n3cc(Cl)cn3)c(Cl)nc12 (centres unmarked) [VI-9]
[1]; [6]
  logP: m/z 397, logP 3.59

## COC(=O)c1cnn2c(O)c(-c3nc(C)sc3C)c(O)nc12 [IV-5]
[1]; [4]
  logP: m/z 321, logP 0.43

## COC(=O)c1cnn2c(NC(C)C)c(-c3ncc(F)cc3F)c(Cl)nc12 [VI-11]
[1]; [6]
  logP: m/z 382, logP 2.76

## COC(=O)c1cnn2c(Cl)c(-n3cc(Cl)cn3)c(Cl)nc12 [V-5]
[1]; [5]
  logP: m/z 346, logP 2.50

## COC(=O)c1cnn2c(Cl)c(-c3ncc(Cl)cc3Cl)c(Cl)nc12 [Example V-2, Methyl 5,7-dichloro-6-(3,5-dichloropyridin-2-yl)pyrazolo[1,5-a]pyrimidine-3-carboxylate]
[1]; [3]
  chromatographic logP: 3.12

## COC(=O)c1cnn2c(Cl)c(-n3nc(C(F)(F)F)cc3C(F)(F)F)c(Cl)nc12 [V-3]
[1]; [5]
  logP: m/z 448, logP 3.64

## COC(=O)c1cnn2c(O)c(-c3ncc(Cl)cc3Cl)c(O)nc12 [IV-2, Methyl 6-(3,5-dichloropyridin-2-yl)-5,7-dihydroxypyrazolo[1,5-a]pyrimidine-3-carboxylate]
[1]; [3]
  chromatographic logP: 0.74
